Values quoted from earlier work as cited in patent publication US10772852B2, “Compositions and methods for combination pharmacological treatments to induce a prolonged, mild decrease in core body temperature” (priority 2015, dated 2020).

What was measured:
mice = conditions: Reilly et al. 2013
[1] = tested on: women with ovarian cancer; conditions: on average, Kumar et al. (2013)
[2] = Boyle et al. 2013

Row | SMILES | effect on obesity, diabetes, and fatty liver (mice) | likelihood to survive for 5 years after diagnosis versus women not taking the drug [1] | reduction in the risk of cardiovascular events ([2]; 29 different studies) [%] | reduction in the risk of MI ([2]; nine studies) [%] | reduction in the risk of heart failure ([2]; seven studies) [%]
1 | CC(C)c1ccc2oc3nc(N)c(C(=O)O)cc3c(=O)c2c1 [amlexanox] | reverse obesity, diabetes, and fatty liver in mice | – | – | – | –
2 | CN(C)C(=N)N=C(N)N [metformin] | – | nearly four times more likely to survive for 5 years | 10 | 12 | 10
